Reference: US12102633B2, “Spirolactone compounds” (Quixgen, Inc., priority 2017, dated 2024)
“Also recorded” adds a separate entry of the source.

Experiments:
3T3-L1 adipocytes = test: Lipogenesis of 3T3-L1 adipocytes; type: cell-based; conditions: Mus musculus, TG readout, read-out: LG-3T3 IC50
Description: 3T3-L1 fibroblast cells (Zen-Bio) were grown in 96-well culture microplate (Corning) with growth media to around 90-100% confluency. Culture media was changed to differentiation media (growth media supplemented with 3-Isobutyl-1-Methylxanthine 500 μM, Dexamethasone 1 μM, insulin 10 μg/mL, and rosiglitazone 2 μM) plus serially diluted compounds prepared in DMSO (1:1000 dilution). After incubation for 2 days, media was changed to maintenance media (growth media supplemented with insulin 10 μg/mL) plus serially diluted compounds prepared in DMSO (1:1000 dilution) for around 1 week with media changed every 2 days. Upon completion of the treatment, culture media are discarded and 200 μL 0.01% SDS was added to each well and shaken for 1 hour to lyse the cells. Cell lysates were then transferred to 400 μL Folch's solution (chloroform: methanol=2:1) and mixed well. After centrifuge at 2,000 rpm for 20 min, 200 μL of the lower organic phase was transferred to a plate with 10 μL sample buffer (chloroform:Triton-100=3:1). Samples were blown dried under nitrogen and 200 μL triglyceride (TG) quantification reagent (Thermo Fisher Scientific) was added, mixed, and incubated at 37° C. for 30 min. TG concentration was determined by reading absorbance at 535 nm (Dynex MRX^e Magellan Biosciences) and calculated from standard curve.

Human sebocytes [1] = test: Cellular levels of malonyl-CoA in human sebocytes; type: cell-based; conditions: 0.5 h, 30 min incubation, read-out: Malonyl-CoA in Sebo IC50
Description: (§1) Shimadzu LC system was used for sample analysis consisting of system controller (Shimadzu CBM-20A), autosampler (Shimadzu SIL-20A), pump A and B (Shimadzu LC-20AD), column oven (Shimadzu CTO-20A), and analytical column (Phenomenex Gemini 5u C18 11A, 100×2 mm). LC was running at 200 μL/min in the binary gradient mode with mobile phase A (5 mM Ammonium Acetate and 5 mM DMBA in water (1,3-Dimethylbutylamine)) and B (methanol). The samples were analyzed on an AB Sciex QTrap4000 LC-MS/MS triple quadrupole mass spectrometer (Applied Biosystems). Malonyl-CoA and malonyl-13C-CoA were monitored in positive ion mode following MRM transitions at 854.2/347.1 and 855.1/246.1, respectively. The product and internal standard were coeluted to the mass spectrometer in 3 s with 50% H2O, 25% MeCN, 25% acetone, and 5 mM ammonium acetate. Ion chromatograms were integrated using the Analyst 1.5.2 software. Peak area ratios were compared against a standard curve and final cellular concentration of malonyl-CoA or production rate of malonyl-13C-CoA was calculated as pmoles/mg protein per minute.
Human sebocytes (Celprogen) were grown in growth media (DMEM with 4.5 g/L glucose, 0.584 g/L L-glutamine (Sigma), 100 units/mL of penicillin and 100 μg/mL of streptomycin (Gibco), 10% fetal bovine serum (Gibco)) at 37° C. in a humidified water jacketed incubator (Forma Scientific) supplemented with 5% CO2 till 100% confluency. Cells grown in 152 cm^2 cell culture dish (Corning) were trypsinized with 0.25% trypsin-EDTA (Gibco), centrifuged at 800 rpm for 10 min (Eppendorf) and resuspended in 4 mL growth media. To 1 μL serial diluted compounds in DMSO, 99 μL cells (around 0.5 million cells suspended in growth media) were added and mixed well followed by incubation in cell culture incubator for 30 min. Cells were then centrifuged at 800 rpm for 10 min and 70 μL 10% trichloroacetic acid was added to each well to lyse the cells and precipitate proteins. Cellular levels of malonyl-CoA were quantitated by LC-MS/MS.

Human sebocytes [2] = test: Lipogenesis of human sebocytes; type: cell-based; conditions: 96 hours, nile red, read-out: LG-Sebo IC50
Description: Human sebocytes (Celprogen) were grown in collagen-coated 96-well culture microplate (White/Clear bottom, Coming BioCoat) with growth media till 100% confluency. Culture media was changed to growth media plus 100 μM arachidonic acid (Sigma) and 10 μM rosiglitazone (Tocris) with compounds prepared in DMSO (1:1000 dilution in growth media). Cells were treated with compounds for 96 hours with media containing compounds changed after 48 hours. Upon completion of treatment, cells were washed with 200 μL Phosphate Buffered Saline (PBS) and then fixed by adding 100 μL 4% formaldehyde (Sigma) and incubated at room temperature for 1 hour. Cells were then washed 3 times with PBS. Microplate was stained with 100 μL nile red solution prepared in PBS (2 mg/mL, 1:400 dilution) by incubating at 37° C. for 1 hour and then washed 3 times with PBS. The fluorescence was read at Ex 492 nm and Em 595 nm (TECAN SpectrofluorPlus). Effect of compounds on lipogenesis in sebocytes was calculated by % of DMSO vehicle control.

[3] = tested on: T1, Mouse ACC (ACC protein purified from liver); test: Mouse ACC enzymatic activity assay; type: biochemical; conditions: read-out: EA-CoA mACC IC50
T1 construct: ACC protein was purified by taking advantage of the biotinylation in the carboxylase domain
Description: ACC protein was purified by taking advantage of the biotinylation in the carboxylase domain. Male C57BL/6J mice (Jackson Laboratory) at 8-12 weeks of age were euthanized by using CO2 inhalation method and liver was immediately frozen on dry ice. To 100 mg liver was added 1 mL ice-cold tissue lysis buffer (20 mM Tris-HCl pH 7.5, 150 mM NaCl, 1 mM Na2EDTA, 1 mM EGTA, 1% Triton, 2.5 mM sodium pyrophosphate, 1 mM 3-glycerophosphate, 1 mM Na3VO4, 1 μg/mL leupeptin, 1 tablet of protease inhibitor cocktail (Roche) per 10 mL lysis buffer) followed by homogenization on ice with Power Gen 125 homogenizer (Fisher Scientific). After 30 min incubation on ice, tissue lysate was passed through a 10 mL syringe with 18½ G needle for 10 times to shear DNA. The lysate was then subject to 17.5%-35% saturated ammonium sulfate precipitation by adding 880 mg ammonium sulfate powder (Sigma) to 10 mL liver lysate in 10 min with stirring on ice. Sample was centrifuged at 14,000 rpm (Eppendorf) at 4° C. for 10 min and supernatant was saved for further precipitation by adding 880 mg ammonium sulfate powder to 10 ml supernatant in 10 min with stirring on ice. Sample was centrifuged at 14,000 rpm at 4° C. for 10 min. Supernatant was discarded and pellet was dissolved in 10 mL sample buffer (100 mM Tris-HCl, pH 7.5, 1 mM EDTA, 0.1 mM DTT, 0.5 M NaCl, and 5% glycerol). The sample was then added with 1 mL of Strep Mag beads slurry (Genscript) and rotated at 4° C. for 1 hour. Supernatant was discarded and beads were washed with sample buffer for 3 times. Protein was then eluted by adding 10 mL of 2 mM biotin (Promega) prepared in sample buffer. The eluate was then dialyzed at 4° C. for 1 hour by using Slide-A-Lyzer™ Dialysis Cassettes 10K MWCO (Thermo Fisher Scientific) against 3 changes of 200 mL dialysis buffer (50 mM HEPES, pH 7.5, 0.1 mM DTT, 1.0 mM EDTA, and 10% glycerol). Total protein concentration was then quantitated by using BCA protein assay kit (Pierce).
For ACC enzymatic activity assay, 1 μL serial diluted compounds prepared in DMSO in duplicate were mixed with 8 μL dialyzed sample at 37° C. for 10 min. Ninety one L of reaction buffer (50 mM HEPES pH 7.5, 10 mM MgCl2, 2.0 mM DTT, 0.5 mM acetyl-CoA, 4.0 mM ATP, 15 mM ^13C-NaHCO3, 0.75 mg/mL BSA, 0.5 mM sodium citrate) was added to the tube and mixed thoroughly. After incubation at 37° C. for 1 hour, 300 μl ice-cold quenching buffer (acetonitrile:methanol=1:1, 20 μM carbutamide as internal standard) was added to each tube and mixed well to terminate the reaction. Samples were centrifuged at 14,000 rpm for 10 min (Eppendorf) and supernatant was loaded onto LC-MS/MS for quantitation of malonyl-^13C-CoA (Gao et al., Journal of chromatography B, Analytical technologies in the biomedical and life sciences 853, 303-313 (2007)).
as §1

Human sebocytes [4] = test: Proliferation of human sebocytes; type: cell-based; conditions: 24 hours, MTT, read-out: AP-Sebo IC50
Description: Human sebocytes (Celprogen) and keratinocytes (ATCC) were grown in 96-well culture microplate (Coming) with growth media to around 50% confluency. Media was changed to growth media mixed with serially diluted compounds in DMSO (1:1000 dilution). After treatment for 24 hours, media was changed to 100 μL phenol red free DMEM and cell numbers were quantitated by using Vybrant® MTT Cell Proliferation Assay Kit (Molecular Probes). Ten μL of 12 mM MTT stock solution was added to each well and the microplate was incubated at 37° C. for 4 hours. Then 100 μL of the SDS-HCl solution was added to each well and mixed thoroughly using a pipette. The microplate was incubated at 37° C. for 4 hours in a cell culture incubator. The microplate was mixed again using a pipette and absorbance was read at 570 nm (Dynex MRX^e Magellan Biosciences). Effect of compounds on proliferation of human keratinocytes was calculated by % of DMSO vehicle control.

[5] = tested on: liver triglycerides (TG) in C57BL/6J mice; test: Chronic treatment for reducing liver triglycerides in C57BL/6J mice; type: in vivo, mouse; conditions: male C57BL/6J mice; 20 mg per kilogram body weight in 0.5% methylcellulose, oral gavage once per day for 2 weeks; FIG. 1, vs vehicle
Description: Male C57BL/6J mice (Jackson Laboratory) at around 9 weeks of age were treated with vehicle (0.5% methylcellulose or PEG400) or Example 14 (30 mg per kilogram body weight, dosing solution prepared in PEG400) and Example 20 (20 mg per kilogram body weight, dosing solution prepared in 0.5% methylcellulose) by oral gavage at ˜9:00 am, once per day for 2 weeks. Concentrations of Example 14 and Example 20 were 15 mg/ml and 2 mg/ml, respectively. The dosing volumes of Example 14 and Example 20 were 2 ml per kilogram body weight and 10 ml per kilogram body weight, respectively. After 14-day treatment, animals were euthanized in CO2 at 2 hours post dose and liver was frozen and kept on dry ice. Liver TG was measured by extracting lipids with chloroform:methanol 2:1 (v/v) followed by quantitation with Infinity™ Triglycerides Reagent (Thermo Scientific).

human ACC1 = molecular target: T2, human ACC1 (Homo sapiens, UniProt Q13085); test: Human ACC enzymatic activity assay (ACC1); type: biochemical; conditions: purified human ACC1; read-out: EA-CoA hACC 1 IC50
T2 construct: purchased BPS Bioscience
Description: (§2) Human ACC enzymatic activity assays were performed by using purified human ACC1 and ACC2 proteins (BPS Bioscience). ACC1 and ACC2 proteins were diluted in 24.5 μL reaction buffer (50 mM HEPES pH 7.5, 10 mM MgCl2, 2.0 mM DTT, 4.0 mM ATP, 15 mM ^13C-NaHCO3, 0.75 mg/mL BSA, 0.5 mM sodium citrate), and final concentrations of ACC1 and ACC2 were 0.4 μg/mL and 0.48 μg/mL. For each reaction, 0.5 μL of serial diluted compounds were prepared in DMSO in duplicate or triplicate and mixed with the above 24.5 μL reaction mixtures with ACC proteins at 37° C. for 10 min. Meanwhile, 25 μL of reaction buffer plus acetyl-CoA (final concentration: 5 μM) was prepared freshly and added to the above 25 μL mixture to initiate the reaction. After incubation at 37° C. for 1-2 hours, 100 μl ice-cold 10% TCA with malonyl-^13C3-CoA (final concentration: 40 nM, Sigma-Aldrich) was added to terminate the reaction. For LC-MS/MS analysis, 300 μL quenching buffer (acetonitrile:methanol=1:1, 20 μM carbutamide as internal standard) was added to each tube and mixed well. Samples were then centrifuged at 14,000 rpm for 10 min (Eppendorf) and supernatants were loaded onto LC-MS/MS for quantitation of […] (Gao et al., Journal of chromatography B, Analytical technologies in the biomedical and life sciences 853, 303-313 (2007)).
as §1

human ACC2 = molecular target: T3, human ACC2 (Homo sapiens, UniProt O00763); test: Human ACC enzymatic activity assay (ACC2); type: biochemical; conditions: purified human ACC2; read-out: EA-CoA hACC 2 IC50
T3 construct: purchased BPS Bioscience
T3 sequence (O00763 whole entry): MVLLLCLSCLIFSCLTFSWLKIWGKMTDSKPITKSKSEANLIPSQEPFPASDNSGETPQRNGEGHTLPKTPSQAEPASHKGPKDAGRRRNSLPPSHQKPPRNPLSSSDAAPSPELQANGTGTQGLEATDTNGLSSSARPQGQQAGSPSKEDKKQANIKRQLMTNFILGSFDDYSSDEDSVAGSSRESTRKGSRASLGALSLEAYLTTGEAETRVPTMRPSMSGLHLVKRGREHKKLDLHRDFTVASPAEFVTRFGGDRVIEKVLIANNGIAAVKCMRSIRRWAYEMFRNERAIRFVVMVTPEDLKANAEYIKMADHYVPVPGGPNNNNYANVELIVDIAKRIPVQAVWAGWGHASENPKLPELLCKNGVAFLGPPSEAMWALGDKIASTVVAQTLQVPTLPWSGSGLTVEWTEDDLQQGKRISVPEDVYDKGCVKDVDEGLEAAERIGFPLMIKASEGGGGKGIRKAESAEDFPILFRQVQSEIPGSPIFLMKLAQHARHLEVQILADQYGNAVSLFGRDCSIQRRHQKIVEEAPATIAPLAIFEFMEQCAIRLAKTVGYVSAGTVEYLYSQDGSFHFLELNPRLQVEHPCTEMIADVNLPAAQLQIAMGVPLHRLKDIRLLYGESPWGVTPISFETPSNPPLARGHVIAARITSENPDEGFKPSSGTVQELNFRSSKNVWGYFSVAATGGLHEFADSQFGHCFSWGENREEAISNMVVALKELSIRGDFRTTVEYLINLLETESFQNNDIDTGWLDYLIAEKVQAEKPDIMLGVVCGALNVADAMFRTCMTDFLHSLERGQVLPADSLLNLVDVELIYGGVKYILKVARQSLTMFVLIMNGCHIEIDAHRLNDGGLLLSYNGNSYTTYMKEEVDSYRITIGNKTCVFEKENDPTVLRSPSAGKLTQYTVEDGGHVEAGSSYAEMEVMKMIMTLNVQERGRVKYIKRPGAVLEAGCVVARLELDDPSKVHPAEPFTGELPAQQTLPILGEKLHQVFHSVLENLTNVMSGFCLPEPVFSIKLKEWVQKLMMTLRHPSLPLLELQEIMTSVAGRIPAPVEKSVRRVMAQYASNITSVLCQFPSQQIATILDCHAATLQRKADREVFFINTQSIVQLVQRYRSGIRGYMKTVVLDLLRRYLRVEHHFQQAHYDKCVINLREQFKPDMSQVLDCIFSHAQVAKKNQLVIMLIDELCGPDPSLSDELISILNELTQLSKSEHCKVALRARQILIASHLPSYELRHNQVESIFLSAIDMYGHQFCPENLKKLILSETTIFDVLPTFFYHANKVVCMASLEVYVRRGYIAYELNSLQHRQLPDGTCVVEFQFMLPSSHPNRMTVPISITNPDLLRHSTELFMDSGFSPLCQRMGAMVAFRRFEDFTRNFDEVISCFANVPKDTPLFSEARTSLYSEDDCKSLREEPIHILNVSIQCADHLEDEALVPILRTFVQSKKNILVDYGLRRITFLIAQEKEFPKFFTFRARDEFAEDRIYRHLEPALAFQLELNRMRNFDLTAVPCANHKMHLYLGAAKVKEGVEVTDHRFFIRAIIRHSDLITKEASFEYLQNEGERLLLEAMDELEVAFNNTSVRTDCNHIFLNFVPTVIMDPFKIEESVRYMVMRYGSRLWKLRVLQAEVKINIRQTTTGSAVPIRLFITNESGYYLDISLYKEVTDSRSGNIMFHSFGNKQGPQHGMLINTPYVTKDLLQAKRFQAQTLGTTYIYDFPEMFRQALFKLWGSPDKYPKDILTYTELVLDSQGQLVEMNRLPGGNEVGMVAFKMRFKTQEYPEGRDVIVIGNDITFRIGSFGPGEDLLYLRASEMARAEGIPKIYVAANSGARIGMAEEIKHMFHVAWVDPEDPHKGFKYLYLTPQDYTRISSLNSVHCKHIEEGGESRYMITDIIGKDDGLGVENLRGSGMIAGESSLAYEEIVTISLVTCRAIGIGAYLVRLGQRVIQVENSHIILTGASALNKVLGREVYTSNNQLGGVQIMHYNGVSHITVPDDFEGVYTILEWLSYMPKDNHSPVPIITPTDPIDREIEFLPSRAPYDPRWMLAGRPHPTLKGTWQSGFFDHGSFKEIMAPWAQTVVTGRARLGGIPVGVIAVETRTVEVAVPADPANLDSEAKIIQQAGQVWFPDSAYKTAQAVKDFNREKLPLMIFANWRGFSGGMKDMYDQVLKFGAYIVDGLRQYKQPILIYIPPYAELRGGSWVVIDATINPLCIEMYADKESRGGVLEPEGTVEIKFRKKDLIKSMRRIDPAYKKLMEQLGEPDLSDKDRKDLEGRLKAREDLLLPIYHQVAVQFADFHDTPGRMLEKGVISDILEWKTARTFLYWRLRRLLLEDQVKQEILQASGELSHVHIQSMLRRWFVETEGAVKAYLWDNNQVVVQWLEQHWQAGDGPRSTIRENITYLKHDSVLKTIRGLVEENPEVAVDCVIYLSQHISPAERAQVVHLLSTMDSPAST
Description: as §2, §1

[6] = in vivo; cited from earlier work
[7] = in vivo; cited from earlier work; remark: listed apart in the source

Q: What does the source list for `COc1cc(C(=O)N2CCC3(CC2)Cc2ccc(C(C)C)cc2C(=O)O3)cc2c(OC)cccc12` [Example 1, 1′-(4,8-dimethoxy-2-naphthoyl)-7-isopropylspiro[isochroman-3,4′-piperidin]-1-one]?
A: IC50 (3T3-L1 adipocytes): 0.0013 µM; IC50 (Human sebocytes [1]): 0.0415 µM; IC50 (Human sebocytes [2]): 0.01 µM; IC50 [3]: 0.0037 µM; IC50 (Human sebocytes [4]): 0.0933 µM

Q: Which results are given for `COc1cc(C(=O)N2CCC3(CC2)Cc2ccc(-c4cncc(C(=O)O)c4)cc2C(=O)O3)nc2c(C3CC3)cccc12` [Example 20, 5-(1′-(8-cyclopropyl-4-methoxyquinoline-2-carbonyl)-1-oxospiro[isochroman-3,4′-piperidin]-7-yl)nicotinic acid]?
A: Liver TG [5]: reduced liver triglycerides; also recorded: reduced liver TG; IC50 (human ACC1): 0.148 µM; IC50 (human ACC2): 0.152 µM

Q: For `CCCCCCCCCCCCCCOc1ccc(C(=O)OCC(=O)N(C)CC(=O)OCC)o1` [olumacostat glasaretil], which “Phase II data” value [6] is on record?
A: positive

Q: And the “Primary endpoints in phase III study” value [7]?
A: did not meet its primary endpoints
